In article PMC10817943 (Nature Communications, 2024):
In brackets after ≈: the same amount, converted by molar mass. Several values for one entry are separate records, joined by “and”; a condition that tells them apart may be missing. Equal values may be shown once. Read-outs that look alike come from different tables or passages of the source. Numbered stars: 1 amine (or outer) side, 2 acyl side, 3 side chain; on linkers, the order of the positions; unused ones are H or OH. Bridge positions count the residues as written; N and C are the ends. Square brackets hold non-standard residues; d marks the D form. Ends that are not written are not given here. Peptide text beside a SMILES is read from it. * marks the point of attachment. ξ: configuration not given here. X2 = CCCC1CC(C(=O)[*:2])N([*:1])C1; Butanoyl(2-oxo) = CCC(=O)C(=O)*; NMeAhp(2) = CCCCC[CH](NC)C(=O)O; ξPro(4ξ-Me) = CC1CNC(C(=O)O)C1; NMeT = CN[CH](C(=O)O)[CH](C)O; NMeL = CN[CH](CC(C)C)C(=O)O; hLeu = CC(C)CC[CH](N)C(=O)O; NMeV = CN[CH](C(=O)O)C(C)C

Tests used:
[1] = system: M. tuberculosis (Mtb) strain H37Ra; assay: microbe, parasite or virus in culture; type: cell-based; details: Mycobacterium tuberculosis, read-out: MIC Mtb H37Ra
[2] = system: M. tuberculosis (Mtb) strain H37Rv; assay: microbe, parasite or virus in culture; type: cell-based, Mycobacterium tuberculosis; details: Mycobacterium tuberculosis, H37RV
C. freundii DSM 30039 = assay: microbe, parasite or virus in culture; type: cell-based; details: Citrobacter freundii, DSM30039, read-out: MIC C. freundii DSM 30039
E. coli BW25113 = assay: microbe, parasite or virus in culture; type: cell-based; details: Escherichia coli, BW25113, read-out: MIC E. coli BW25113
A. baumannii DSM 30008 = assay: microbe, parasite or virus in culture; type: cell-based; details: Acinetobacter baumannii, DSM30008, read-out: MIC A. baumannii DSM 30008
[3] = system: M. marinum (Mm) strain M (ATCC BAA-535); assay: microbe, parasite or virus in culture; type: cell-based; details: Mycobacterium marinum, ATCCBAA535, read-out: MIC M. marinum strain M
[4] = biological target: M. smegmatis DnaN (msDnaN) (Mycolicibacterium smegmatis, UniProt A0QND6); assay: biochemical; type: binding; details: for Response (Average): MST source data, runs #1-#3, listed as MP B
B. subtilis DSM 10 = assay: microbe, parasite or virus in culture; type: cell-based; details: Bacillus subtilis, DSM10, read-out: MIC B. subtilis DSM 10
[5] = system: M. smegmatis (Msmeg) strain mc^2155; assay: microbe, parasite or virus in culture; type: cell-based; details: Mycolicibacterium smegmatis, MC^2155, read-out: MIC M. smegmatis mc^2155
CHO-K1 cells = assay: cells; type: cell-based, Chinese hamster (Cricetulus griseus); details: Cricetulus griseus, CHO-K1, 120 h, read-out: IC50 CHO-K1
S. aureus Newman = assay: microbe, parasite or virus in culture; type: cell-based; details: Staphylococcus aureus, read-out: MIC S. aureus Newman
[6] = system: M. smegmatis mc^2155 GM^R; assay: microbe, parasite or virus in culture; type: cell-based; details: Mycolicibacterium smegmatis, MC^2155, read-out: MIC M. smegmatis mc^2155 GM^R
[7] = biological target: T1, M. smegmatis DnaN (DNA polymerase III sliding clamp) (M. smegmatis mc^2155, UniProt A0QND6 1-397, labeled using Monolith Series Protein Labeling Kit BLUE-NHS); assay: MST; msDnaN labeled (BLUE-NHS) at 50 nM; compounds titrated in 16 serial dilution steps, triplicates; 20 mM Tris, 150 mM NaCl, 0.05% Tween-20; Monolith NT-115; details: both partners purified
T1 construct: also called msDnaN; DnaN from M. smegmatis mc^2155
T1 sequence (looked up): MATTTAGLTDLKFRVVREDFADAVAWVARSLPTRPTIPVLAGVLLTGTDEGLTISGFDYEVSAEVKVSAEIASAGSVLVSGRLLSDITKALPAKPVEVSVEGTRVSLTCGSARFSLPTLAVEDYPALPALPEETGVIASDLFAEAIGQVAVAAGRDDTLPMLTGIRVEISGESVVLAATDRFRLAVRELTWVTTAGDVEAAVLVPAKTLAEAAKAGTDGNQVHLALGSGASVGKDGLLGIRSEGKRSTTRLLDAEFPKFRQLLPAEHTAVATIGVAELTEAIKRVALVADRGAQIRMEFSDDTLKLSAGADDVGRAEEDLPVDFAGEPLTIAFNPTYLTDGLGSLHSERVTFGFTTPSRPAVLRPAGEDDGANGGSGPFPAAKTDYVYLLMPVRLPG

Molecule | MIC [1] [µg/mL] | MIC ([2]; read-out: MIC Mtb H37Rv) [µg/mL] | MIC (C. freundii DSM 30039) [µg/mL] | MIC (E. coli BW25113) [µg/mL] | MIC (A. baumannii DSM 30008) [µg/mL] | MIC [3] [µg/mL] | Kd [4] [nM] | MIC (B. subtilis DSM 10) [µg/mL] | MIC [5] [µg/mL] | IC50 (CHO-K1 cells) [µg/mL] | MIC (S. aureus Newman) [µg/mL] | MIC [6] [µg/mL] | further results
CCCCCC1C(=O)NCC(=O)OC(C)C(N(C)C(=O)C2CC(CCC)CN2C(=O)C(C(C)C)N(C)C(=O)C(=O)CC)C(=O)NC(CC(C)C)C(=O)N2CC(C)CC2C(=O)NC(CCC(C)C)C(=O)N(C)C(C(C)C)C(=O)N2CCCC2C(=O)N1C (centres unmarked) [Mycoplanecin E] ({Butanoyl(2-oxo)}-[NMeV][X2][NMeT]L[ξPro(4ξ-Me)][hLeu][NMeV]P[NMeAhp(2)]G; ester 3-C; configuration not given here) | 0.03 (≈ 0.0248 µM) | 0.083 (≈ 0.0685 µM) | > 64 | > 64 | > 64 | 0.5 (≈ 0.413 µM) | 64.4 ± 33.2 | > 64 | 0.125 (≈ 0.103 µM) | > 37 | > 64 | – | MIC ([2]; read-out: minimum inhibition concentration against Mycobacterium tuberculosis): 0.083 µg/mL (≈ 0.0685 µM)
CCCC1CC(C(=O)N(C)C2C(=O)NC(CC(C)C)C(=O)N3CC(C)CC3C(=O)NC(CCC(C)C)C(=O)N(C)C(C(C)C)C(=O)N3CCCC3C(=O)N(C)C(CC(C)C)C(=O)NCC(=O)OC2C)N(C(=O)C(C(C)C)N(C)C(=O)C(=O)CC)C1 (centres unmarked) [Mycoplanecin D] ({Butanoyl(2-oxo)}-[NMeV][X2][NMeT]L[ξPro(4ξ-Me)][hLeu][NMeV]P[NMeL]G; ester 3-C; configuration not given here) | 0.05 (≈ 0.0418 µM) | 0.17 (≈ 0.142 µM) | > 64 | > 64 | > 64 | 1 (≈ 0.835 µM) | 134 ± 69.3 | > 64 | 0.25 (≈ 0.209 µM) | > 37 | > 64 | 8 (≈ 6.68 µM) | –
CCC(=O)C(=O)N(C)C(C(=O)N1CC(C)CC1C(=O)N(C)C1C(=O)NC(CC(C)C)C(=O)N2CC(C)CC2C(=O)NC(CCC(C)C)C(=O)N(C)C(C(C)C)C(=O)N2CCCC2C(=O)N(C)C(CC(C)C)C(=O)NCC(=O)OC1C)C(C)C (centres unmarked) [Mycoplanecin B] | 0.1 (≈ 0.0855 µM) | 0.43 (≈ 0.368 µM) | > 64 | > 64 | > 64 | 2 (≈ 1.71 µM) | 24.4 ± 11.9 | > 64 | 0.5 (≈ 0.428 µM) | > 37 | > 64 | 8 (≈ 6.84 µM) | Response (Average) ([4]; Dose 1.22E-08 (unit not given)): 897.348 and 900.943 and 911.516; Response (Average) ([4]; Dose 1.25E-05 (unit not given)): 906.572 and 909.169 and 909.706; Response (Average) ([4]; Dose 1.53E-09 (unit not given)): 896.843 and 900.134 and 899.613; Response (Average) ([4]; Dose 1.56E-06 (unit not given)): 907.358 and 910.005 and 911.362; Response (Average) ([4]; Dose 1.95E-07 (unit not given)): 905.084 and 913.604 and 911.242; Response (Average) ([4]; Dose 2.44E-08 (unit not given)): 897.582 and 904.128 and 903.123; Response (Average) ([4]; Dose 2.50E-05 (unit not given)): 906.786 and 911.734 and 910.009; Response (Average) ([4]; Dose 3.05E-09 (unit not given)): 897.958 and 898.601 and 900.671; Response (Average) ([4]; Dose 3.13E-06 (unit not given)): 907.585 and 910.886 and 909.908; Response (Average) ([4]; Dose 3.91E-07 (unit not given)): 908.074 and 910.248 and 909.115; Response (Average) ([4]; Dose 4.88E-08 (unit not given)): 897.616 and 904.939 and 909.25; Response (Average) ([4]; Dose 5.00E-05 (unit not given)): 906.528 and 909.788 and 910.069; Response (Average) ([4]; Dose 6.10E-09 (unit not given)): 894.937 and 899.128 and 901.665; Response (Average) ([4]; Dose 6.25E-06 (unit not given)): 905.496 and 910.338 and 909.682; Response (Average) ([4]; Dose 7.81E-07 (unit not given)): 907.246 and 909.231 and 910.996; Response (Average) ([4]; Dose 9.77E-08 (unit not given)): 902.534 and 911.539 and 911.215
VPTLPLVPLG (also: macrocycle, 4-methylproline twice, positions not placed) [griselimycin] | – | – | – | – | – | – | – | – | – | – | – | – | Kd [7]: 6.5 nM
